Columns and labels:
[1] = system: miR-34a; experiment: miR-34a reporter luciferase assay in Huh7 cells; type: cell-based, human
Method: The pMIR-REPORT™ luciferase plasmid (1 μg; Ambion) was sequentially double digested with Sac I and Hind III (10 units each, 50 μL reaction; NEB) and was gel purified. Double stranded insert DNA encoding the miR-34a binding site was synthesized through standard oligonucleotide synthesis methods. The sequences used were Forward: 5′z […]-3′ (SEQ ID NO:1) and Reverse: 5′: […]-3′ (SEQ ID NO:2). The insert was hybridized (heated to 95° C., and cooled to 4° C. over 30 min, then held at 4° C. for 60 min) and ligated with T4 ligase (200 units, 10 μL reaction, 1:10 vector/insert ratio; NEB) into the digested pMIR-REPORT™ luciferase vector. Positive colonies were selected by PCR colony screens, and the construction of the pMIR-REPORT™-miR-34a vector was confirmed by double enzyme digestion with NheI, MluI and Nhe I, Hind III (NEB). The luciferase reporter vector containing the miR-34a promoter was kindly provided by Prof. Mendell J T from Johns Hopkins University (21).
Huh7 cells were seeded into 96-well plates 12 h prior to transfection. MiR-34a reporter and the control vector were respectively co-transfected with Renilla luciferase pRL-SV40 into Huh7 cells. All transfections were performed in triplicate. The cells were incubated at 37° C. for 4 h followed by the replacement of transfection media with standard DMEM growth media with 10 μM of the natural products library (NPL) compounds (Tim Tec; 0.1% DMSO final concentration). This library contains 640 compounds including natural products and their derivatives. After 48 h of incubation, the media was removed and cells were lysed and the luciferase signals were measured by luciferase assay as described below.
MiR-34a reporter, the luciferase reporter vector containing miR-34a promoter and the control vectors were transfected into HCC cells 12 h before compound treatment. The Renilla luciferase vector pRL-SV40 was co-transfected as an internal control. HCC cells were then treated with compound for 48-72 h. The luciferase activity was measured by Dual Luciferase Reporter Assay (Promega) with a Wallac VICTOR^3V luminometer. The ratio of firefly luciferase to Renilla expression was calculated for each of the triplicates.

[2] = system: miR-34a; experiment: qRT-PCR of primary and mature miR-34a in HCC cells; type: cell-based, human; settings: for increased miR-34a level by Rubone after p53 knockdown: 2 μM siRNAs targeting p53, 10 μM Rubone; for primary and mature miR-34a levels: 10 μM, 48 h
Method: (§1) Total RNA from cell cultures and HCC xenograft tumors were extracted using Trizol (Invitrogen) according to manufacturer's protocols. Total RNAs were dissolved into nuclease-free ddH2O. For protein extraction, cells and HCC xenograft tumors were lysed in 1×RIPA buffer with 1 mM PMSF and 1× complete protease inhibitor cocktail (Roche, Indianapolis, Ind.). Both RNA and protein were stored at −80° C.
(§2) Total RNA was reversely transcribed into cDNAs using High Capacity cDNA Reverse Transcription Kit (Applied Biosystems, Foster city, CA, USA) and nude RT kit (Invitrogen) individually. qRT-PCR was performed using SYBR Green PCR master mix (TaKaRa, Dalian, China). GAPDH was used as an endogenous control. For measuring miR-34a expression level, qPCR was performed by using SYBR Green PCR master mixture (Invitrogen) and U6 was used as the internal control. All samples were normalized to internal controls and fold changes were calculated by relative quantification (2^−ΔΔct).

[3] = system: Cyclin D1 and Bcl-2; experiment: Expression of miR-34a targets Cyclin D1 and Bcl-2 (qRT-PCR, western blotting) in HCC cells; type: cell-based, human; settings: 10 μM, 48 h (RNA) or 72 h (protein)
Method: as §1, §2
Protein quantification was performed using BCA protein assay kit (Thermo Fisher Scientific, Rockford, Ill., USA). 25-50 μg protein was separated by SDS-PAGE (sodium dodecyl sulfate-polyacrylamide gel electrophoresis) and transferred to PVDF membranes (Bio-Rad). […] Protein expression was detected by autoradiography using Amersham ECL Plus™ Western Blotting Detection Reagents (GE Healthcare, Uppsala, Sweden).

[4] = system: Huh7 cells; experiment: MTT cell viability assay, Huh7; type: cell-based, human; settings: Huh7, 10 μM
Method: (§3) Cell viability was measured by 3-(4,5-Dimethylthiazol-2-yl)-2,5-diphenyltetrazolium bromide (MTT) assay. 1×10^3 Cells were seeded in triplicate on a 96 well plate and were allowed to grow for indicated time points. At each time point a set of cells were incubated with 0.5 mg/ml MTT diluted in 1×PBS. After 2 to 4 h incubation, the MTT solution was removed. The insoluble MTT was dissolved in DMSO. Absorbance at 570 nm was measured by an ELISA plate reader.

[5] = system: Bel-7404 cells; experiment: MTT cell viability assay, Bel-7404; type: cell-based, human
Method: as §3

[6] = system: PLC cells; experiment: MTT cell viability assay, PLC/PRF/5; type: cell-based, human
Method: as §3

[7] = system: non-tumorigenic human hepatocyte cell line MIHA; experiment: MTT cell viability assay, MIHA; type: cell-based; settings: different concentrations and time points
Method: as §3

[8] = system: HCC cells; experiment: MTT cell viability assay, HCC cell lines; type: cell-based, human; settings: 5 μM
Method: as §3

[9] = system: p53; experiment: p53 expression by RT-PCR in HCC cells; type: cell-based, human; settings: HepG2, Huh7 and Bel-7404 cells, 10 μM (FIG. 9A)
Method: as §2

[10] = HepG2 xenograft model, survival, body weight and side effects; settings: for Body weight (g) initial / Body weight (g) end: mean (95% CI); for Body weight (g) end: end of 24 d treatment
Method: 5×10^6 HepG2 cells were suspended in 100 μl serum-free medium and subcutaneously (s.c.) inoculated into the dorsal flanks of nude mice. When tumors reached 5-10 mm in diameter, mice were randomly divided into 4 groups (n=5). […] Vehicle alone and Sorafenib were used as the negative and positive control respectively. Tumor volumes and body weight were measured once every two days. Tumor volume was calculated as [(Length×Width×Height)±2]. Treatment was continued for 24 d. Finally, all mice were sacrificed and tumors were excised. Tumor weight was recorded.

## COc1cc(O)c(C(=O)/C=C/c2cc(OC)c(OC)cc2OC)c(OC)c1 [Rubone, 2′-Hydroxy-2,4,4′,5,6′-pentamethoxychalcone]
[1]
  function as miR-34a activator, re-assayed in triplicate with miR-34a reporter system: functions as the miR-34a activators are confirmed
[1]; Homo sapiens, Huh-7, 48 h
  IC50: 3.8 µM
[1]; indicated concentrations, 48 h
  luciferase activities of miR-34a reporter: inhibited the luciferase activities in a dose-dependent manner
[2]; Bel-7404 cells
  increased miR-34a level by Rubone after p53 knockdown: significantly reversed by p53 knockdown
[2]; Hep3B cells (p53 deleted)
  primary and mature miR-34a levels: no change
[2]; HepG2 cells (wild-type p53)
  primary and mature miR-34a levels: significantly increased
[2]; HepG2 cells
  increased miR-34a level by Rubone after p53 knockdown: significantly reversed by p53 knockdown
[2]; Huh7 cells (mutant p53)
  primary and mature miR-34a levels: significantly increased
[3]; HepG2 cells
  mRNA and protein levels of Cyclin D1 and Bcl-2: significantly reduced
[3]; Huh7 cells
  mRNA and protein levels of Cyclin D1 and Bcl-2: significantly reduced
[4]
  cell growth (MTT): significantly inhibited the growth
[5]; Bel-7404, 2 μM siRNAs targeting p53, 10 μM Rubone
  growth inhibitory effect of Rubone after p53 knockdown (MTT): significantly reversed by knocking down p53
[5]; Bel-7404, 10 μM
  cell growth (MTT): significantly inhibited the growth
[5]; Bel-7404, 10 μM Rubone with 2 μM miR-34a inhibitors, 72 h
  effect of miR-34a inhibitors on growth inhibition by Rubone (MTT): reversed the growth inhibitory effect
[5]; Bel-7404, 10 μM Rubone with 2 μM miR-34a mimics, 72 h
  effect of miR-34a mimics on chemosensitivity to Rubone (MTT): enhanced the chemosensitivity
[6]; 10 μM
  cell growth (MTT): significantly inhibited the growth
[6]; 10 μM Rubone with 2 μM miR-34a inhibitors, 72 h
  effect of miR-34a inhibitors on growth inhibition by Rubone (MTT): reversed the growth inhibitory effect
[6]; 10 μM Rubone with 2 μM miR-34a mimics, 72 h
  effect of miR-34a mimics on chemosensitivity to Rubone (MTT): enhanced the chemosensitivity
[7]
  growth rate (MTT): little changes in the growth rate
[8]
  cell growth (MTT): inhibited the growth of HCC cells slightly
[9]
  p53 expression: not affected
[10]; 20 mg/kg group
  Body weight (g) initial: 19.60(95% CI = 18.49 − 20.71)/ g
[10]; 20 mg/kg
  Body weight (g) end: 23.60(95% CI = 21.93 − 25.27) g
[10]; 20 mg/kg, gavage once every two days, 24 d
  Mice survival (n) initial/end: 5/5
[10]; 50 mg/kg group
  Body weight (g) initial: 20.00(95% CI = 20.00 − 20.00)/ g
[10]; 50 mg/kg
  Body weight (g) end: 23.60(95% CI = 21.03 − 26.17) g
[10]; 50 mg/kg, gavage once every two days, 24 d
  Mice survival (n) initial/end: 5/5
[10]; tumor bearing nude mice, gavage once every two days, 24 d
  side effect at the end of experiment: No obvious side effect
